A short description of data set [1]: Metabolic stability in human liver microsomes. The format is in vitro ADME. The conditions noted are these: for % Parent Remaining (30 min) Ave ± SD: 2.0 mg/mL human liver microsomes, 2 mM NADPH, pH 7.4, 37° C., average of 3 experiments. How it is done:
Human liver microsomes (20 mg/mL) were available from Xenotech, LLC (Lenexa, Kans.). β-nicotinamide adenine dinucleotide phosphate, reduced form (NADPH), magnesium chloride (MgCl2), and dimethyl sulfoxide (DMSO) are available from Sigma-Aldrich.
7.5 mM stock solutions of test compound 102 as well as of NS11394 were prepared in DMSO. The 7.5 mM stock solutions were diluted to 12.5 in acetonitrile (ACN). The 20 mg/mL human liver microsomes were diluted to 2.5 mg/mL in 0.1 M potassium phosphate buffer, pH 7.4, containing 3 mM MgCl2. The diluted microsomes were added to wells of a 96-well deep-well polypropylene plate in triplicate. A […] aliquot of the 12.5 test compound 102 was added to the microsomes and the mixture was pre-warmed for 10 minutes. Reactions were initiated by addition of pre-warmed NADPH solution. The final reaction volume was 0.5 mL and contained 2.0 mg/mL human liver microsomes, 0.25 test compound, and 2 mM NADPH in 0.1 M potassium phosphate buffer, pH 7.4, and 3 mM MgCl2. The reaction mixtures were incubated at 37° C., and […] aliquots were removed at 0, 5, 10, 20, and 30 minutes and added to shallow-well 96-well plates which contain […] of ice-cold ACN with internal standard to stop the reactions. The plates were stored at 4° C. for 20 minutes after which […] of water was added to the wells of the plate before centrifugation to pellet precipitated proteins. Supernatants were transferred to another 96-well plate and analyzed for amounts of parent remaining by LC-MS/MS using an AB SCIEX QTRAP® 5500. Testing was done in triplicate.
The in vitro t1/2s for test compounds were calculated from the slopes of the linear regression of % parent remaining (ln) vs incubation time relationship: in vitro t1/2=0.693/k k=−[slope of linear regression of % parent remaining (ln) vs incubation time]. Data analysis was performed using Microsoft Excel Software.
The testing was done in triplicate and the values shown in the table reflect the average of 3 experiments. […]
(In general: Liver microsomes are a subcellular fraction often used to study metabolism.)

The subject of data set [2] is inflammatory and neuropathic pain-like behaviors in animal models. The conditions noted are these: cited from earlier work.
The subject of data set [3] is rodent anxiety models. The conditions noted are these: in vivo; cited from earlier work.
The target of data set [4] is T1, GABAA α3 receptors (Homo sapiens, UniProt P18507+P34903).
T1 sequence (P34903 29-492): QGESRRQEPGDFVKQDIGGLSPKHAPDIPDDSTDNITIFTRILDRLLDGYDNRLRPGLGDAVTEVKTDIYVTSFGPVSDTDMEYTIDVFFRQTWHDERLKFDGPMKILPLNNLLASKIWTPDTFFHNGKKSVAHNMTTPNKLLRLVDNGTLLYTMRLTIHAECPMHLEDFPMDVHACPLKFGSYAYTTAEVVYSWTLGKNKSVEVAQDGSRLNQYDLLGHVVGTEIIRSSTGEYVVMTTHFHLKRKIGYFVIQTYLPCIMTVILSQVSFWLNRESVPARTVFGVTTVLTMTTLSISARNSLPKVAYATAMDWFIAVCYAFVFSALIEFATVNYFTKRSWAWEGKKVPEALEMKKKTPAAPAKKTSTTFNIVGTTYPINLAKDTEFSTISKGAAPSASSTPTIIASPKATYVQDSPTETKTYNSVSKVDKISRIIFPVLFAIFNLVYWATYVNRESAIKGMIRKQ
T1 sequence (P18507 40-467 limits assumed): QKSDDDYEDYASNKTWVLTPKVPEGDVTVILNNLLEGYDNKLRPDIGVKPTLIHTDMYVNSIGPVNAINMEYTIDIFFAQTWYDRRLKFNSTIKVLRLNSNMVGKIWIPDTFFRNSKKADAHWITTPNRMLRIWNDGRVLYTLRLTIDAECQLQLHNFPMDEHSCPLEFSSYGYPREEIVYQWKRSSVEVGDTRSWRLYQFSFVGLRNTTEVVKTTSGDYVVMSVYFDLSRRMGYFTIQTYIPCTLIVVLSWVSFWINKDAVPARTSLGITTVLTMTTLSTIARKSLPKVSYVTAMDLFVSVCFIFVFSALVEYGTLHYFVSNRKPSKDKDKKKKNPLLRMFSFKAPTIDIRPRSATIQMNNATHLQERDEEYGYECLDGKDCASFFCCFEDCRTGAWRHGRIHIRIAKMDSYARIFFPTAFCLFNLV
T1 sequence (P47870 25-512 partner limits assumed): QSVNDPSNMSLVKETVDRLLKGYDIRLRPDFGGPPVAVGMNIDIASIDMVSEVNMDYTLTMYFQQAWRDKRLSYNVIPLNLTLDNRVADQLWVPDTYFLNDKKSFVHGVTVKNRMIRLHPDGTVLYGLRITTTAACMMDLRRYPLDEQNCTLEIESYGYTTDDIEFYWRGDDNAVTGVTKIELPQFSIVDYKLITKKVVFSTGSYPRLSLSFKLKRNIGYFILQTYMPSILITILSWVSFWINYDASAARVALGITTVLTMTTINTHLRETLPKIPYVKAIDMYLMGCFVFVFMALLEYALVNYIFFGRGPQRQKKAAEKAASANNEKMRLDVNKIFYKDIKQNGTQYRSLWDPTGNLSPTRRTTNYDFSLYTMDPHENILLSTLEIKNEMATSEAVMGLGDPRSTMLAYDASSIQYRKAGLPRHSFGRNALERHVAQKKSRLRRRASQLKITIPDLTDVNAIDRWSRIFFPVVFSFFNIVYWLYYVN
The conditions noted are these: cited from earlier work.

[5] abbreviates: animal models, oral administration.

`[2H]C([2H])([2H])C(O)(c1ccc2c(c1)ncn2-c1cccc(-c2ccccc2C#N)c1)C([2H])([2H])[2H]` [Compound 102, 3′-(5-(2-Hydroxy-1,1,1,3,3,3-d6-propan-2-yl)-1H-benzo[d]imidazol-1-yl)biphenyl-2-carbonitrile]: in data set [1], the “% Parent Remaining (30 min) Ave ± SD” value turned out to be 101 ± 8.7%.
For the compound `CC(C)(O)c1ccc2c(c1)ncn2-c1cccc(-c2ccccc2C#N)c1` [NS11394, 3′-[5-(1-hydroxy-1-methylethyl)-1H-benzimidazol-1-yl]biphenyl-2-carbonitrile], in data set [2] (setting [5]), the “reversal of inflammatory and neuropathic pain-like behaviors” value is on record as “completely reverse”; the tolerability entry was “well tolerated”. For the same compound, the dependence issues result in data set [2] (in vivo) was “No dependence issues were observed”. Moreover, the “efficacy in rodent anxiety models” value in data set [3] is “potent and highly effective”. In addition, the “% Parent Remaining (30 min) Ave ± SD” value in data set [1] is recorded as 77 ± 3.7%. Moreover, the half-life in data set [1] (human, human liver microsomes, pH 7.4, in vitro t1/2 from linear regression of ln % parent remaining vs incubation time, NC = not calculable due to <20% metabolism in HLM, read-out: t1/2 (min) Ave ± SD) was 95 ± 35 min. The “efficacy at GABAA α3 receptors” value in data set [4] is recorded as “high efficacy”.

The values are drawn from patent US8278460B2, “Substituted benzimidazoles” (Concert Pharmaceuticals, Inc., priority 2009, dated 2012).
